Source: US9862998B2, “Conformational probes and methods for sequencing nucleic acids” (Illumina, Inc., priority 2010, dated 2018)
Entries after “also recorded” stand apart in the source; their conditions may differ.

Tests used:
Format in all cases: biochemical
[1] = molecular target: T1, 5-TAMRA Pol β (W325C Pol β) (Homo sapiens, UniProt P06746, W325C); test: Stopped-flow 5-TAMRA fluorescence detection of nucleotide incorporation by 5-TAMRA Pol β; settings: for amplitudes and durations for the 5-TAMRA emission shift: incorporated at an appropriate position in a template-bound primer, FIG. 10, 11, 13
T1 construct: made in house; host or cells: E. coli BL21(DE3)
Method: 5-TAMRA Pol β was prepared as follows. Human Pol β was mutated to replace Tryptophan 325 (in the fingers domain) with cysteine to produce W325C Pol β. Standard mutagenesis techniques were used to produce W325C Pol β as described in Example III. The W325C Pol β was cloned in the pET15b plasmid, expressed in E. coli BL21(DE3) cells and purified as described in Dunlap and Tsai, Biochemistry, 41 (37): 11226-11235 (2002), which is incorporated herein by reference. The purified W325C Pol β was chemically modified to introduce the 5-TAMRA fluorescent dye at cysteine 325, thereby producing 5-TAMRA Pol β.
Conformational changes in the 5-TAMRA Pol β enzyme from the open to closed state can be detected based on a fluorescent emission change from the environmentally sensitive 5-TAMRA dye. The spectral and emission intensity changes from the 5-TAMRA dye when the polymerase changes to the closed state. The 5-TAMRA Pol β enzyme can be bound to a primer-template nucleic acid complex in an open conformation. In the open conformation the 5-TAMRA dye when excited with light at a wavelength of 542 nm will emit fluorescence at a wavelength of 568 nm. However upon binding of an appropriate nucleotide to the 5-TAMRA Pol β-primer-template binary complex, the 5-TAMRA Pol β enzyme changes from the open state to the closed state causing the 5-TAMRA dye to experience a different environment. This change in environment results in a detectable fluorescent emission change from the TAMRA dye at the wavelength of 568 nm. As such, binding of the appropriate nucleotide can be detected as a fluorescent emission change at 568 nm wavelength. Furthermore, differential time durations of the closed state can be used to distinguish different nucleotides that are incorporated into the primer by 5-TAMRA Pol β.
The real-time fluorescence change from 5-TAMRA Pol β was measured in the Applied Photophysics SX20 stopped-flow spectrometer by monitoring changes in 5-TAMRA dye fluorescence following the mixing of the 5-TAMRA Pol β-DNA binary complex with a nucleotide in a reaction buffer containing 50 mM Tris-HCl, pH 7.5, 50 mM KCl, 1 mM Dithiothreitol and 5 mM MgCl2 as described in Example III.
(§1) Dual labeled KF was produced as described in Example III. FRET from dual labeled KF was measured by stopped flow kinetics also as described in Example III. 5-TAMRA Pol β was prepared as described in Example IV. The real time fluorescence change from 5-TAMRA Pol β was measured by stopped flow kinetics also as described in Example IV.

[2] = molecular target: Alexa 488 and 532 dual-labeled KF (K550C/L744C/C907G Klenow Fragment) (Escherichia coli, UniProt P00582, C907G/K550C/L744C); parameters: made in house; host or cells: E. coli BL21(DE3); settings: for AF488 fluorescence duration measured for the incorporation: dTTP versus Gamma-ANS-dTTP, FIG. 12; for FRET duration, correct versus incorrect incorporation: position complementary to cytosine, dGTP correct, dCTP incorrect, FIG. 8; for time durations of the FRET signal for incorporation into the primer: AF488 donor fluorescence, stopped flow, FIG. 5-7
Description: The Klenow Fragments (KF) was produced as follows. KF was mutated to replace cysteine 907 with glycine, to replace leucine 744 (in the fingers domain) with cysteine and to replace lysine 550 (in the thumb domain) with cysteine, thereby producing K550C/L744C/C907G KF. Standard mutagenesis techniques were used to produce K550C/L744C/C907G KF as described in the manual of the QuikChange® site-directed mutagenesis kit from Stratagene/Agilent (La Jolla, Calif.). The K550C/L744C/C907G KF was cloned into the pET15b plasmid using the NdeI and BamHI restriction sites, and expressed in E. coli BL21(DE3) cells. The K550C/L744C/[…] KF was purified as described in Joyce, et al. Biochemistry, 47 (23): 6103-6116 (2008), which is incorporated herein by reference. The purified K550C/L744C/C907C KF was chemically modified using the thiol-reactive maleimide to introduce the Alexa488 fluorescent donor dye at cysteine 550
Conformational changes in the dual labeled KF enzyme from the open to closed state can be detected based on fluorescence resonance energy transfer (FRET) between the AF488 fluorescent donor dye on the thumb domain and AF532 fluorescence acceptor dye on the fingers domain. The KF enzyme can be bound to a primer-template nucleic acid complex in an open conformation. In the open conformation the AF488 fluorescent donor dye when excited with light at a wavelength of 495 nm will emit fluorescence at a wavelength of 519 nm. However, upon binding of an appropriate nucleotide to the dual labeled KF-template-primer complex the dual labeled KF enzyme changes from the open state to the closed state. The closed state brings the AF488 fluorescent donor dye on the thumb domain into proximity with the AF532 fluorescence acceptor dye on the finger domain such that the AF488 fluorescent donor dye when excited transfers energy to the AF532 fluorescence acceptor dye. This FRET results in a detectable emission from the AF532 fluorescence acceptor dye at a wavelength of […]. As such, binding of the appropriate nucleotide can be detected as increased emission at 554 nm wavelength. Furthermore, differential time durations of the closed state can be used to distinguish different nucleotides that are incorporated into the primer by dual labeled KF.
The real-time fluorescence change from dual labeled KF was measured in an Applied Photophysics SX20 stopped-flow spectrometer by monitoring changes in AF 488 dye fluorescence following the mixing of the PolI(KF)-DNA binary complex with a nucleotide in the reaction buffer containing 10 mM Tris-HCl, pH 8.0, 50 mM NaCl, 1 mM dithiothreitol and 10 mM MgCl2.
as §1

[3] = test system: nucleic acid duplex of extendable 3'-OH primer and AF488 template; test: FRET-based primer extension assay (AF488 quenching); settings: AF488 quenching over time by Cy3-dCTP incorporation, FIG. 16
Method: Functionality of the Cy3AF647 and CF555AF647 conjugates of RB69V510CE766C were confirmed using a FRET-based primer extension assay as follows. Extension was carried out on a nucleic acid duplex composed of an extendable 3′-OH primer and a template with a 7 base overhang. The extendable sequence was TGGAACG. In addition, the template contained an AF488 dye at the 5′ position. The extension reaction mix was composed of 50 mM ACES pH 7.2, 50 mM NaCl, 10 mM DTT, 10 mM Mg′, 1 μM dTTP, 1 μM dGTP, 1 μM dATP and 0.1 μM Cy3-dCTP. Upon extension, the Cy3 quenches the AF488. The control reactions were carried out under the same conditions except that dTTP was removed to prevent extension. A SpectraMax M5 plate reader was used to monitor the AF488 quenching over time. […] The plot confirms that both conjugates were functional in extending a primed nucleic acid.

Alexa 488 and 532 dual-labeled KF (K550C/L744C/C907G Klenow Fragment), sequence (P00582 324-928 K550C/L744C/C907G): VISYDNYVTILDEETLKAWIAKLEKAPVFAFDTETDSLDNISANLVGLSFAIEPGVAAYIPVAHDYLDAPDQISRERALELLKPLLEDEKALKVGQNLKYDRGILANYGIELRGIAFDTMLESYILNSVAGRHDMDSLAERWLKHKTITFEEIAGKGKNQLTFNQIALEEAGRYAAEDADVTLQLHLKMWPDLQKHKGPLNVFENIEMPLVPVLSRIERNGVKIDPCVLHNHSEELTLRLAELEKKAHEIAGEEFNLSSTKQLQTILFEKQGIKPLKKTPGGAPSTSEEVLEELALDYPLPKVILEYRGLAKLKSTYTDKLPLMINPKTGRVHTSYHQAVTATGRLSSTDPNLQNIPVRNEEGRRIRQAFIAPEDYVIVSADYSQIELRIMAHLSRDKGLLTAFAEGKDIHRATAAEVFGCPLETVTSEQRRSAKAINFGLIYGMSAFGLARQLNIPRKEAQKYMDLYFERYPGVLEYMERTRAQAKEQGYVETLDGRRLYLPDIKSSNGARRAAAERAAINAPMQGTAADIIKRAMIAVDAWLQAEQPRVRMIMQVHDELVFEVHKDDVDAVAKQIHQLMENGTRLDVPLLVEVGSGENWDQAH

Cc1cn([C@H]2C[C@H](O)[C@@H](COP(=O)(O)OP(=O)(O)OP(=O)(O)O)O2)c(=O)[nH]c1=O [dTTP]
amplitudes and durations for the 5-TAMRA emission shift [1]: different amplitudes and durations; also recorded: could be distinguished from each other | AF488 fluorescence duration measured for the incorporation [2]: substantially different

Nc1ccn([C@H]2C[C@H](O)[C@@H](COP(=O)(O)OP(=O)(O)OP(=O)(O)O)O2)c(=O)n1 [dCTP]
incorporation detected by wavelength shift for the 5-TAMRA dye ([1]; correct or incorrect nucleotide, FIG. 9A, 9B): could be detected | amplitudes and durations for the 5-TAMRA emission shift [1]: different amplitudes and durations | FRET duration, correct versus incorrect incorporation [2]: could be distinguished

Gamma-ANS-dTTP
amplitudes and durations for the 5-TAMRA emission shift [1]: could be distinguished from each other | AF488 fluorescence duration measured for the incorporation [2]: substantially different

Nc1ccn([C@H]2C[C@H](O)[C@@H](COP(O)(=S)OP(=O)(O)OP(=O)(O)O)O2)c(=O)n1 (stereo partly drawn) [1-alpha-thiol-dCTP]
time durations of the FRET signal for incorporation into the primer [2]: substantially different

O=c1ccn([C@H]2C[C@H](O)[C@@H](COP(=O)(O)OP(=O)(O)OP(=O)(O)O)O2)c(=O)[nH]1 [dUTP]
time durations of the FRET signal for incorporation into the primer [2]: differed

Nc1nc2c(ncn2[C@H]2C[C@H](O)[C@@H](COP(=O)(O)OP(=O)(O)OP(=O)(O)O)O2)c(=O)[nH]1 [dGTP]
amplitudes and durations for the 5-TAMRA emission shift [1]: different amplitudes and durations | time durations of the FRET signal for incorporation into the primer [2]: very similar | FRET duration, correct versus incorrect incorporation [2]: could be distinguished

1-alpha-borano-dCTP
amplitudes and durations for the 5-TAMRA emission shift [1]: could be distinguished from each other | time durations of the FRET signal for incorporation into the primer [2]: substantially different

Nc1ncnc2c1ncn2[C@H]1C[C@H](O)[C@@H](COP(=O)(O)OP(=O)(O)OP(=O)(O)O)O1 [dATP]
amplitudes and durations for the 5-TAMRA emission shift [1]: different amplitudes and durations | time durations of the FRET signal for incorporation into the primer [2]: very similar

B1: Cy3AF647: RB69V510CE766C polymerase labeled with donor/acceptor pair Cy3/AF647 at cysteine residues (conjugate, UniProt Q38087 1-903, looked up, variant V510C E766C)
DNA-directed DNA polymerase: MKEFYLTVEQIGDSIFERYIDSNGRERTREVEYKPSLFAHCPESQATKYFDIYGKPCTRKLFANMRDASQWIKRMEDIGLEALGMDDFKLAYLSDTYNYEIKYDHTKIRVANFDIEVTSPDGFPEPSQAKHPIDAITHYDSIDDRFYVFDLLNSPYGNVEEWSIEIAAKLQEQGGDEVPSEIIDKIIYMPFDNEKELLMEYLNFWQQKTPVILTGWNVESFDIPYVYNRIKNIFGESTAKRLSPHRKTRVKVIENMYGSREIITLFGISVLDYIDLYKKFSFTNQPSYSLDYISEFELNVGKLKYDGPISKLRESNHQRYISYNIIDVYRVLQIDAKRQFINLSLDMGYYAKIQIQSVFSPIKTWDAIIFNSLKEQNKVIPQGRSHPVQPYPGAFVKEPIPNRYKYVMSFDLTSLYPSIIRQVNISPETIAGTFKVAPLHDYINAVAERPSDVYSCSPNGMMYYKDRDGVVPTEITKVFNQRKEHKGYMLAAQRNGEIIKEALHNPNLSCDEPLDVDYRFDFSDEIKEKIKKLSAKSLNEMLFRAQRTEVAGMTAQINRKLLINSLYGALGNVWFRYYDLRNATAITTFGQMALQWIERKVNEYLNEVCGTEGEAFVLYGDTDSIYVSADKIIDKVGESKFRDTNHWVDFLDKFARERMEPAIDRGFREMCEYMNNKQHLMFMDREAIAGPPLGSKGIGGFWTGKKRYALNVWDMEGTRYAEPKLKIMGLETQKSSTPKAVQKALKECIRRMLQEGEESLQEYFKCFEKEFRQLNYISIASVSSANNIAKYDVGGFPGPKCPFHIRGILTYNRAIKGNIDAPQVVEGEKVYVLPLREGNPFGDKCIAWPSGTEITDLIKDDVLHWMDYTVLLEKTFIKPLEGFTSAAKLDYEKKASLFDMFDF
modifications: Cy3/AF647 dye labels
notes: RB69V510CE766C polymerase labeled with donor/acceptor pair Cy3/AF647 at cysteine residues
functionality in extending a primed nucleic acid [3]: functional

B2: CF555AF647: RB69V510CE766C polymerase labeled with donor/acceptor pair CF555/AF647 at cysteine residues (conjugate, UniProt Q38087 1-903, looked up, variant V510C E766C)
DNA-directed DNA polymerase: B1 DNA-directed DNA polymerase
modifications: CF555/AF647 dye labels
notes: RB69V510CE766C polymerase labeled with donor/acceptor pair CF555/AF647 at cysteine residues
functionality in extending a primed nucleic acid [3]: functional
